≈ marks a conversion by molar mass, not a printed value.
Experiments:
Type in all cases: functional
Enterococcus faecium = assay: Antibacterial activity against vancomycin-resistant Enterococcus faecium ATCC 700221 by NCCLS method
Enterococcus faecalis = assay: Antibacterial activity against vancomycin-resistant Enterococcus faecalis ATCC 51575 by NCCLS method
Staphylococcus aureus [1] = assay: Antibacterial activity against multi-drug resistant Staphylococcus aureus BAA-39 by NCCLS method
Clostridium perfringens = assay: Antibacterial activity against Clostridium perfringens ATCC 10388 by NCCLS method
[2] = system: Staphylococcus epidermidis; assay: Antibacterial activity against methicillin-resistan Staphylococcus epidermidis ATCC 51625 by NCCLS method
Staphylococcus aureus [3] = assay: Antibacterial activity against methicillin-resistan Staphylococcus aureus ATCC 33591 by NCCLS method
Staphylococcus aureus [4] = assay: Antibacterial activity against Staphylococcus aureus ATCC 29213 by NCCLS method
Streptococcus pneumoniae = assay: Antibacterial activity against Streptococcus pneumoniae ATCC 6301 by NCCLS method
Bacillus subtilis = assay: Antibacterial activity against Bacillus subtilis ATCC 23857 by NCCLS method
Bacillus cereus = assay: Antibacterial activity against Bacillus cereus ATCC 11778 by NCCLS method
Bacteroides fragilis = assay: Antibacterial activity against Bacteroides fragilis ATCC 23745 by NCCLS method
[5] = system: Staphylococcus epidermidis; assay: Antibacterial activity against Staphylococcus epidermidis ATCC 12228 by NCCLS method

| Structure (SMILES) | MIC (Enterococcus faecium) | MIC (Enterococcus faecalis) | MIC (Staphylococcus aureus [1]) | MIC (Clostridium perfringens) | MIC [2] | MIC (Staphylococcus aureus [3]) | MIC (Staphylococcus aureus [4]) | MIC (Streptococcus pneumoniae) | MIC (Bacillus subtilis) | MIC (Bacillus cereus) | MIC (Bacteroides fragilis) | MIC [5] |
| --- | --- | --- | --- | --- | --- | --- | --- | --- | --- | --- | --- | --- |
| CC(C)NC(=N)c1ccc2[nH]c(-c3ccc(Oc4ccc(-c5nc6cc(C(=N)NC(C)C)ccc6[nH]5)cc4)cc3)nc2c1 | < 0.06 µg/mL | 0.12 µg/mL (≈ 0.21 µM) | 0.5 µg/mL (≈ 0.876 µM) | 0.5 µg/mL (≈ 0.876 µM) | < 0.06 µg/mL | 0.12 µg/mL (≈ 0.21 µM) | 0.25 µg/mL (≈ 0.438 µM) | < 0.06 µg/mL | < 0.06 µg/mL | < 0.06 µg/mL | 2 µg/mL (≈ 3.5 µM) | < 0.06 µg/mL |
| CC(C)NC(=N)c1ccc2[nH]c(-c3ccc(Cc4ccc(-c5nc6cc(C(=N)NC(C)C)ccc6[nH]5)cc4)cc3)nc2c1 | 0.12 µg/mL (≈ 0.211 µM) | 0.25 µg/mL (≈ 0.44 µM) | 1 µg/mL (≈ 1.76 µM) | 1 µg/mL (≈ 1.76 µM) | 0.25 µg/mL (≈ 0.44 µM) | 0.25 µg/mL (≈ 0.44 µM) | 1 µg/mL (≈ 1.76 µM) | < 0.06 µg/mL | 0.25 µg/mL (≈ 0.44 µM) | 0.25 µg/mL (≈ 0.44 µM) | 1 µg/mL (≈ 1.76 µM) | 0.12 µg/mL (≈ 0.211 µM) |
| CC1(C)S[C@@H]2[C@H](NC(=O)Cc3ccccc3)C(=O)N2[C@H]1C(=O)O [PENICILLIN G] | > 32 µg/mL | 4 µg/mL (≈ 12 µM) | > 32 µg/mL | ≤ 0.12 µg/mL | 32 µg/mL (≈ 95.7 µM) | > 32 µg/mL | 1 µg/mL (≈ 2.99 µM) | < 0.06 µg/mL | < 0.06 µg/mL | > 4 µg/mL | 4 µg/mL (≈ 12 µM) | 32 µg/mL (≈ 95.7 µM) |
| CC(C)NC(=N)c1ccc2[nH]c(-c3ccc([C@@H]4C[C@H]4c4ccc(-c5nc6cc(C(=N)NC(C)C)ccc6[nH]5)cc4)cc3)nc2c1 | 0.12 µg/mL (≈ 0.202 µM) | 0.5 µg/mL (≈ 0.841 µM) | 0.5 µg/mL (≈ 0.841 µM) | 0.25 µg/mL (≈ 0.42 µM) | 0.12 µg/mL (≈ 0.202 µM) | 0.25 µg/mL (≈ 0.42 µM) | 1 µg/mL (≈ 1.68 µM) | ≤ 0.06 µg/mL | 0.12 µg/mL (≈ 0.202 µM) | 0.12 µg/mL (≈ 0.202 µM) | 0.5 µg/mL (≈ 0.841 µM) | ≤ 0.06 µg/mL |
| CC(C)NC(=N)c1ccc2[nH]c(-c3ccc(NS(=O)(=O)c4ccc(-c5nc6cc(C(=N)NC(C)C)ccc6[nH]5)cc4)cc3)nc2c1 | 4 µg/mL (≈ 6.31 µM) | 2 µg/mL (≈ 3.16 µM) | 16 µg/mL (≈ 25.2 µM) | 4 µg/mL (≈ 6.31 µM) | 4 µg/mL (≈ 6.31 µM) | 16 µg/mL (≈ 25.2 µM) | > 32 µg/mL | 1 µg/mL (≈ 1.58 µM) | 2 µg/mL (≈ 3.16 µM) | 2 µg/mL (≈ 3.16 µM) | 2 µg/mL (≈ 3.16 µM) | 2 µg/mL (≈ 3.16 µM) |
| CC(C)NC(=N)c1ccc2[nH]c(-c3ccc(N(C)c4ccc(-c5nc6cc(C(=N)NC(C)C)ccc6[nH]5)cc4)cc3)nc2c1 | ≤ 0.06 µg/mL | 0.25 µg/mL (≈ 0.428 µM) | 0.5 µg/mL (≈ 0.857 µM) | 1 µg/mL (≈ 1.71 µM) | 0.12 µg/mL (≈ 0.206 µM) | 0.5 µg/mL (≈ 0.857 µM) | 1 µg/mL (≈ 1.71 µM) | 0.12 µg/mL (≈ 0.206 µM) | 0.12 µg/mL (≈ 0.206 µM) | 0.25 µg/mL (≈ 0.428 µM) | > 32 µg/mL | 0.12 µg/mL (≈ 0.206 µM) |
| CC(C)NC(=N)c1ccc2[nH]c(-c3ccc(C#Cc4ccc(-c5nc6cc(C(=N)NC(C)C)ccc6[nH]5)cc4)cc3)nc2c1 | 0.5 µg/mL (≈ 0.864 µM) | 32 µg/mL (≈ 55.3 µM) | 4 µg/mL (≈ 6.91 µM) | 4 µg/mL (≈ 6.91 µM) | 0.25 µg/mL (≈ 0.432 µM) | 2 µg/mL (≈ 3.46 µM) | 2 µg/mL (≈ 3.46 µM) |  | 4 µg/mL (≈ 6.91 µM) | 0.5 µg/mL (≈ 0.864 µM) | > 32 µg/mL | 0.12 µg/mL (≈ 0.207 µM) |
| CC(C)NC(=N)c1ccc2[nH]c(-c3ccc(Sc4ccc(-c5nc6cc(C(=N)NC(C)C)ccc6[nH]5)cc4)cc3)nc2c1 | 16 µg/mL (≈ 27.3 µM) | > 32 µg/mL | 32 µg/mL (≈ 54.5 µM) | > 32 µg/mL | 16 µg/mL (≈ 27.3 µM) | 16 µg/mL (≈ 27.3 µM) | > 32 µg/mL | > 32 µg/mL | 16 µg/mL (≈ 27.3 µM) | 8 µg/mL (≈ 13.6 µM) | > 32 µg/mL | 8 µg/mL (≈ 13.6 µM) |
| CC(C)NC(=N)c1ccc2[nH]c(-c3ccc(N(c4ccccc4)c4ccc(-c5nc6cc(C(=N)NC(C)C)ccc6[nH]5)cc4)cc3)nc2c1 | 0.12 µg/mL (≈ 0.186 µM) | 0.5 µg/mL (≈ 0.774 µM) | 0.5 µg/mL (≈ 0.774 µM) | 1 µg/mL (≈ 1.55 µM) | 0.25 µg/mL (≈ 0.387 µM) | 0.5 µg/mL (≈ 0.774 µM) | 1 µg/mL (≈ 1.55 µM) | 0.12 µg/mL (≈ 0.186 µM) | ≤ 0.06 µg/mL | 0.12 µg/mL (≈ 0.186 µM) | 4 µg/mL (≈ 6.19 µM) | 0.25 µg/mL (≈ 0.387 µM) |
| CC(C)NC(=N)c1ccc2[nH]c(-c3ccc(CCc4ccc(-c5nc6cc(C(=N)NC(C)C)ccc6[nH]5)cc4)cc3)nc2c1 | 0.12 µg/mL (≈ 0.206 µM) | 0.25 µg/mL (≈ 0.429 µM) | 0.5 µg/mL (≈ 0.858 µM) | 0.25 µg/mL (≈ 0.429 µM) | 0.12 µg/mL (≈ 0.206 µM) | 0.25 µg/mL (≈ 0.429 µM) | 0.25 µg/mL (≈ 0.429 µM) | < 0.06 µg/mL | 0.12 µg/mL (≈ 0.206 µM) | 0.12 µg/mL (≈ 0.206 µM) | 0.5 µg/mL (≈ 0.858 µM) | < 0.06 µg/mL |
| CC(C)NC(=N)c1ccc2[nH]c(-c3ccc(/C=C/c4ccc(-c5nc6cc(C(=N)NC(C)C)ccc6[nH]5)cc4)cc3)nc2c1 | 0.25 µg/mL (≈ 0.43 µM) | 0.5 µg/mL (≈ 0.861 µM) | 1 µg/mL (≈ 1.72 µM) | 0.5 µg/mL (≈ 0.861 µM) | 0.25 µg/mL (≈ 0.43 µM) | 0.5 µg/mL (≈ 0.861 µM) | 1 µg/mL (≈ 1.72 µM) | 0.25 µg/mL (≈ 0.43 µM) | 0.25 µg/mL (≈ 0.43 µM) | 0.25 µg/mL (≈ 0.43 µM) | 0.5 µg/mL (≈ 0.861 µM) | 0.12 µg/mL (≈ 0.207 µM) |
| CN[C@H](CC(C)C)C(=O)N[C@H]1C(=O)N[C@@H](CC(N)=O)C(=O)N[C@H]2C(=O)N[C@H]3C(=O)N[C@H](C(=O)N[C@H](C(=O)O)c4cc(O)cc(O)c4-c4cc3ccc4O)[C@H](O)c3ccc(c(Cl)c3)Oc3cc2cc(c3O[C@@H]2O[C@H](CO)[C@@H](O)[C@H](O)[C@H]2O[C@H]2C[C@](C)(N)[C@H](O)[C@H](C)O2)Oc2ccc(cc2Cl)[C@H]1O [VANCOMYCIN] | > 64 µg/mL | > 32 µg/mL |  | 0.12 µg/mL (≈ 0.0828 µM) |  |  |  | 1 µg/mL (≈ 0.69 µM) | 0.12 µg/mL (≈ 0.0828 µM) |  | 4 µg/mL (≈ 2.76 µM) |  |
| CC(C)NC(=N)c1ccc2[nH]c(-c3ccc4c(c3)Cc3ccc(-c5nc6cc(C(=N)NC(C)C)ccc6[nH]5)cc3S4)nc2c1 | 0.5 µg/mL (≈ 0.835 µM) | 16 µg/mL (≈ 26.7 µM) | 8 µg/mL (≈ 13.4 µM) | 0.5 µg/mL (≈ 0.835 µM) | 0.5 µg/mL (≈ 0.835 µM) | 2 µg/mL (≈ 3.34 µM) | 16 µg/mL (≈ 26.7 µM) | 0.12 µg/mL (≈ 0.2 µM) | 1 µg/mL (≈ 1.67 µM) | 1 µg/mL (≈ 1.67 µM) | > 32 µg/mL | 2 µg/mL (≈ 3.34 µM) |
| CC(C)NC(=N)c1ccc2[nH]c(-c3ccc(-c4ccc(-c5ccc(-c6nc7cc(C(=N)NC(C)C)ccc7[nH]6)cc5)o4)cc3)nc2c1 | 2 µg/mL (≈ 3.22 µM) | > 32 µg/mL | 32 µg/mL (≈ 51.5 µM) | 1 µg/mL (≈ 1.61 µM) | 2 µg/mL (≈ 3.22 µM) | 2 µg/mL (≈ 3.22 µM) | > 32 µg/mL | 0.12 µg/mL (≈ 0.193 µM) | 2 µg/mL (≈ 3.22 µM) | 2 µg/mL (≈ 3.22 µM) | > 32 µg/mL | 4 µg/mL (≈ 6.44 µM) |
| CC(C)NC(=N)c1ccc2[nH]c(-c3ccc(COc4ccc(-c5nc6cc(C(=N)NC(C)C)ccc6[nH]5)cc4)cc3)nc2c1 | 0.12 µg/mL (≈ 0.205 µM) | 1 µg/mL (≈ 1.71 µM) | 4 µg/mL (≈ 6.84 µM) | 16 µg/mL (≈ 27.4 µM) | 0.25 µg/mL (≈ 0.428 µM) | 0.5 µg/mL (≈ 0.855 µM) | 1 µg/mL (≈ 1.71 µM) | ≤ 0.06 µg/mL | 0.12 µg/mL (≈ 0.205 µM) | 0.12 µg/mL (≈ 0.205 µM) | 32 µg/mL (≈ 54.7 µM) | ≤ 0.06 µg/mL |
| O=C(O)c1cn(C2CC2)c2cc(N3CCNCC3)c(F)cc2c1=O [CIPROFLOXACIN] | > 32 µg/mL | 0.5 µg/mL (≈ 1.51 µM) | 8 µg/mL (≈ 24.1 µM) |  | ≤ 0.12 µg/mL | ≤ 0.12 µg/mL | 0.5 µg/mL (≈ 1.51 µM) |  | ≤ 0.12 µg/mL | ≤ 0.12 µg/mL | 0.5 µg/mL (≈ 1.51 µM) | ≤ 0.12 µg/mL |
| CC(C)NC(=N)c1ccc2[nH]c(-c3ccc(Nc4ccc(-c5nc6cc(C(=N)NC(C)C)ccc6[nH]5)cc4)cc3)nc2c1 | 0.12 µg/mL (≈ 0.211 µM) | 0.25 µg/mL (≈ 0.439 µM) | 0.25 µg/mL (≈ 0.439 µM) | 2 µg/mL (≈ 3.51 µM) | 0.25 µg/mL (≈ 0.439 µM) | 0.25 µg/mL (≈ 0.439 µM) | 0.25 µg/mL (≈ 0.439 µM) | 0.12 µg/mL (≈ 0.211 µM) | 0.12 µg/mL (≈ 0.211 µM) | 0.12 µg/mL (≈ 0.211 µM) | > 32 µg/mL | 0.12 µg/mL (≈ 0.211 µM) |
